Laboratory results: US6916812B2, “Alpha-aminoamide derivatives as melanocortin agonists” (Bristol-Myers Squibb Company, priority 2001, dated 2005)
Read-outs that look alike come from different tables or passages of the source.

Biological target: T1, cloned human MC4R (Homo sapiens, UniProt P32245)
T1 construct: made in house; host or cells: Hi5 insect cells (baculovirus infection); membrane preparation
Assay: Membrane binding assay: competitive inhibition of [125I]NDP-α-MSH binding
Settings: for IC50: read-out: MC4R IC50; for inhibition at 10 µM: read-out: Displacement Rate (%) (at 10 μM)
Method: Hi5 cells are infected using the following protocol: Cells at a density of 1×10^6 cells/mL are spun down at 1000 rpm (Beckman GS-6KR centrifuge) for 10 minutes. Cells are resuspended in 10% of their original volume in a sterile 50 mL conical centrifuge tube wrapped with aluminum foil. Virus is added at a Multiplicity of Infection (MOI) of 3 and incubated for 1 hour at room temperature with gentle shaking. […] Cells are spun down in 50 mL conical centrifuge tubes at 1000 rpm for 10 minutes. Each of the resulting pellets are resuspended in 10 mL of cold (4° C.) membrane buffer (25 mM HEPES, pH 7.4, 140 mM NaCl, 1.2 mM MgCl2, 2.5 mM CaCl2, 10 μG/mL Aprotinin, 10 μG/mL Leupeptin) and Dounce homogenized using 10-12 strokes. […] The resulting pellet is resuspended in cold membrane buffer in a total of ¼ of the original volume by vortexing and aspiration using a syringe and 27 gauge needle. Protein content is determined (Bradford, Bio-Rad Protein Assay). Membranes are aliquoted in microcentrifuge tubes and quick frozen in liquid nitrogen. Store at −80° C. until use. The membrane binding buffer is composed of 25 mM HEPES, pH 7.4, 140 mM NaCl, 1.2 mM MgCl2, 2.5 mM CaCl2, 0.1% BSA. […] The mixture is filtered with Brandel Microplate 96 filter apparatus using 96-well GF/B filter presoaked in 1-% polyethyleneimine (Sigma). The filter is washed (4 times with a total of 1 mL per well) with cold wash buffer consisting of 20 mM HEPES, pH 7.4, 5 mM MgCl2. […] 100 μl of Wallac Optiphase Supermix scintillation fluid is added to each well. The top is sealed and the plates are shaken to insure that the filters are thoroughly soaked with fluid. […] Dose-response curves are fitted by […] analyses and IC50 values are calculated using ExcelFit.

[1] = at 10 μM, [125I]NDP-α-MSH displacement

T1 sequence (P32245 whole entry): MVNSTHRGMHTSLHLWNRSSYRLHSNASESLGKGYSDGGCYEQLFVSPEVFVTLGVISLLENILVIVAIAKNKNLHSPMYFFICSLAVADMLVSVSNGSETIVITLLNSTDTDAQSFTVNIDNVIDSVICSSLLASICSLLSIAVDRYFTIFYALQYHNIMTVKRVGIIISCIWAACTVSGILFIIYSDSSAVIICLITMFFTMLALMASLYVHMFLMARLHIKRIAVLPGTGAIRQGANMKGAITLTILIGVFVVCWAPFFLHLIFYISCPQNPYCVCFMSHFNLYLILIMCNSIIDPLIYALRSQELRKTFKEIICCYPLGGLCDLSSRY

Displacement Rate (%) (at 10 μM) [1] | IC50 | inhibition at 10 µM [1] | inhibition at 10 µM | SMILES
+++ (+++ = 91-100) | < 1500 nM |  |  | N[C@@H](Cc1ccc(OCCCc2ccc(OCc3ccccc3)cc2)cc1)C(=O)N1CCN(Cc2cccc(Cl)c2Cl)CC1 [Example 260]
 | < 1500 nM | 91 to 100% |  | N[C@@H](Cc1ccc(OCc2ccccc2)cc1)C(=O)N1CCN(Cc2ccc(/C=C/c3ccccc3)cc2)CC1 [Example 88]
 | < 1500 nM |  |  | Cc1ccc(Oc2ccc(C[C@H](N)C(=O)N3CCN(Cc4cccc(Cl)c4Cl)CC3)cc2)cc1 [Example 345]
+++ (+++ = 91-100) | < 1500 nM |  |  | Cc1cccc(COc2ccc(C[C@H](N)C(=O)N3CCN(Cc4cccc(Cl)c4Cl)CC3)cc2)c1 [Example 213]
+++ (+++ = 91-100) | < 1500 nM |  |  | N[C@@H](Cc1ccc(OCc2ccc(Cl)c(Cl)c2)cc1)C(=O)N1CCN(Cc2cccc(Cl)c2Cl)CC1 [Example 204]
 | 1500 to 3000 nM | 71 to 90% |  | COc1cc(CN2CCCN(C(=O)[C@@H](N)Cc3ccc(OCc4ccccc4)cc3)CC2)ccc1OCc1ccccc1 [Example 29]
 | > 3000 nM | 71 to 90% |  | Nc1cccc(-c2ccc(C[C@H](N)C(=O)N3CCN(Cc4cccc(Cl)c4Cl)CC3)cc2)c1 [Example 333]
+++ (+++ = 91-100) | < 1500 nM |  |  | CCCCc1ccc(COc2ccc(C[C@H](N)C(=O)N3CCN(Cc4cccc(Cl)c4Cl)CC3)cc2)cc1 [Example 184]
 | 1500 to 3000 nM |  |  | Cc1ccccc1Oc1ccc(C[C@H](N)C(=O)N2CCN(Cc3cccc(Cl)c3Cl)CC2)cc1 [Example 348]
 | 1500 to 3000 nM | 71 to 90% |  | CCCCCCCN1CCN(C(=O)[C@@H](N)Cc2ccc(OCc3ccccc3)cc2)CC1 [Example 122]
++ (++ = 71-90) | > 3000 nM |  |  | COc1ccc(OC)c(COc2ccc(C[C@H](N)C(=O)N3CCN(Cc4cccc(Cl)c4Cl)CC3)cc2)c1 [Example 227]
 | < 1500 nM | 91 to 100% |  | N[C@@H](Cc1ccc(OCc2ccccc2)cc1)C(=O)N1CCN(Cc2ccc(Oc3ccccc3)cc2)CC1 [Example 84]
+++ (+++ = 91-100) | 1500 to 3000 nM |  |  | N[C@@H](Cc1ccc(OCc2cccc3ccccc23)cc1)C(=O)N1CCN(Cc2cccc(Cl)c2Cl)CC1 [Example 218]
 | 1500 to 3000 nM |  |  | N[C@@H](Cc1ccc(Oc2ccc(Cl)c(Cl)c2)cc1)C(=O)N1CCN(Cc2cccc(Cl)c2Cl)CC1 [Example 346]
++ (++ = 71-90) | > 3000 nM |  |  | COc1ccc(COc2ccc(C[C@H](N)C(=O)N3CCN(Cc4cccc(Cl)c4Cl)CC3)cc2)cc1 [Example 225]
 | > 3000 nM | 35 to 70% |  | N[C@@H](Cc1ccc(OCc2ccccc2)cc1)C(=O)N1CCCN(Cc2cccc3ccccc23)CC1 [Example 47]
 | > 3000 nM | 35 to 70% |  | CC(COc1ccccc1)N1CCCN(C(=O)[C@@H](N)Cc2ccc(OCc3ccccc3)cc2)CC1 (stereo partly drawn) [Example 49]
 | > 3000 nM | 71 to 90% |  | O=C([C@H](Cc1ccc(OCc2ccccc2)cc1)NCCc1ccccc1)N1CCN(Cc2cccc(Cl)c2Cl)CC1 [Example 171]
+++ (+++ = 91-100) | < 1500 nM |  |  | N[C@@H](Cc1ccc(OCc2c(F)c(F)c(F)c(F)c2F)cc1)C(=O)N1CCN(Cc2cccc(Cl)c2Cl)CC1 [Example 185]
+++ (+++ = 91-100) | < 1500 nM |  |  | N[C@@H](Cc1ccc(OCCc2ccc(OCc3ccccc3)cc2)cc1)C(=O)N1CCN(Cc2cccc(Cl)c2Cl)CC1 [Example 251]
 | < 1500 nM | 91 to 100% |  | CSc1ccc(-c2ccc(C[C@H](N)C(=O)N3CCN(Cc4cccc(Cl)c4Cl)CC3)cc2)cc1 [Example 295]
+++ (+++ = 91-100) | < 1500 nM |  |  | N[C@@H](Cc1ccc(OCCc2cccc(Br)c2)cc1)C(=O)N1CCN(Cc2cccc(Cl)c2Cl)CC1 [Example 248]
+++ (+++ = 91-100) | < 1500 nM |  |  | CCc1ccc(COc2ccc(C[C@H](N)C(=O)N3CCN(Cc4cccc(Cl)c4Cl)CC3)cc2)cc1 [Example 220]
 | 1500 to 3000 nM | 71 to 90% |  | Cc1ccc(C)c(CN2CCN(C(=O)[C@@H](N)Cc3ccc(OCc4ccccc4)cc3)CC2)c1 [Example 107]

Displacement Rate (%) (at 10 μM) [1] | IC50 | inhibition at 10 µM [1] | inhibition at 10 µM | SMILES
 | 1500 to 3000 nM | 71 to 90% |  | CC(C)(C)c1ccc(CN2CCCN(C(=O)[C@@H](N)Cc3ccc(OCc4ccccc4)cc3)CC2)cc1 [Example 39]
+++ (+++ = 91-100) | < 1500 nM |  |  | N[C@@H](Cc1ccc(OCc2ccccc2C(F)(F)F)cc1)C(=O)N1CCN(Cc2cccc(Cl)c2Cl)CC1 [Example 182]
 | 1500 to 3000 nM | 91 to 100% |  | N[C@@H](Cc1ccc(OCc2ccccc2)cc1)C(=O)N1CCCN(Cc2ccc3c(c2)Cc2ccccc2-3)CC1 [Example 10]
 | > 3000 nM | 35 to 70% |  | N[C@@H](Cc1ccc(OCc2ccccc2)cc1)C(=O)N1CCN(CCCc2ccccc2)CC1 [Example 147]
 | 1500 to 3000 nM | 91 to 100% |  | N[C@@H](Cc1ccc(OCc2ccccc2)cc1)C(=O)N1CCCN(Cc2ccc(OCc3ccccc3)cc2)CC1 [Example 13]
 | > 3000 nM | 35 to 70% |  | N[C@@H](Cc1ccc(OCc2ccccc2)cc1)C(=O)N1CCCN(Cc2c(F)cccc2Cl)CC1 [Example 58]
+++ (+++ = 91-100) | < 1500 nM |  |  | N[C@@H](Cc1ccc(OCCc2ccccc2Cl)cc1)C(=O)N1CCN(Cc2cccc(Cl)c2Cl)CC1 [Example 242]
 | < 1500 nM | 91 to 100% |  | N[C@@H](Cc1ccc(OCc2ccccc2)cc1)C(=O)N1CCN(Cc2ccccc2Sc2ccc(Cl)cc2)CC1 [Example 82]
 | 1500 to 3000 nM | 71 to 90% |  | COc1cccc(-c2ccc(C[C@H](N)C(=O)N3CCN(Cc4cccc(Cl)c4Cl)CC3)cc2)c1 [Example 325]
++ (++ = 71-90) | 1500 to 3000 nM |  |  | COc1ccc(-c2ccc(C[C@H](N)C(=O)N3CCN(Cc4cccc(Cl)c4Cl)CC3)cc2)c(OC)c1 [Example 322]
 | < 1500 nM | 91 to 100% |  | CCCN[C@@H](Cc1ccc(OCc2ccccc2)cc1)C(=O)N1CCN(Cc2cccc(Cl)c2Cl)CC1 [Example 167]
+ (+ = 35-70) | > 3000 nM |  |  | COc1ccc(CCOc2ccc(C[C@H](N)C(=O)N3CCN(Cc4cccc(Cl)c4Cl)CC3)cc2)cc1OC [Example 259]
+++ (+++ = 91-100) | < 1500 nM |  |  | N[C@@H](Cc1ccc(OCc2ccc(Cl)c([N+](=O)[O-])c2)cc1)C(=O)N1CCN(Cc2cccc(Cl)c2Cl)CC1 [Example 219]
 | 1500 to 3000 nM | 91 to 100% |  | N[C@@H](Cc1ccc(-c2ccccc2Cl)cc1)C(=O)N1CCN(Cc2cccc(Cl)c2Cl)CC1 [Example 321]
 | < 1500 nM | 91 to 100% |  | CCN[C@@H](Cc1ccc(OCc2ccccc2)cc1)C(=O)N1CCN(Cc2cccc(Cl)c2Cl)CC1 [Example 166]
+++ (+++ = 91-100) | 1500 to 3000 nM |  |  | N[C@@H](Cc1ccc(OCc2c(F)cccc2F)cc1)C(=O)N1CCN(Cc2cccc(Cl)c2Cl)CC1 [Example 205]
 | 1500 to 3000 nM |  | 71 to 90% | N[C@@H](Cc1ccc(-c2cccc3cccnc23)cc1)C(=O)N1CCN(Cc2cccc(Cl)c2Cl)CC1 [Example 340]
 | 1500 to 3000 nM | 71 to 90% |  | COc1cc(CN2CCN(C(=O)[C@@H](N)Cc3ccc(OCc4ccccc4)cc3)CC2)cc(Br)c1OC [Example 121]
 | > 3000 nM | 71 to 90% |  | N[C@@H](Cc1ccc(-c2ccc(C(=O)O)cc2)cc1)C(=O)N1CCN(Cc2cccc(Cl)c2Cl)CC1 [Example 329]
+++ (+++ = 91-100) | < 1500 nM |  |  | N[C@@H](Cc1ccc(OCc2cccc(Oc3ccccc3)c2)cc1)C(=O)N1CCN(Cc2cccc(Cl)c2Cl)CC1 [Example 193]
 | > 3000 nM | 35 to 70% |  | N[C@@H](Cc1ccc(OCc2ccccc2)cc1)C(=O)N1CCN(C2CCCC2)CC1 [Example 158]
 | < 1500 nM | 91 to 100% |  | N[C@@H](Cc1ccc(OCc2ccccc2)cc1)C(=O)N1CCN(Cc2ccc(-c3ccccc3)cc2)CC1 [Example 95]
+ (+ = 35-70) | > 3000 nM |  |  | COc1ccc(-c2ccc(C[C@H](N)C(=O)N3CCN(Cc4cccc(Cl)c4Cl)CC3)cc2)cc1OC [Example 331]
++ (++ = 71-90) | < 1500 nM |  |  | COc1ccc(CCCOc2ccc(C[C@H](N)C(=O)N3CCN(Cc4cccc(Cl)c4Cl)CC3)cc2)cc1OC [Example 265]
